Data taken from patent US9006221B2, “Method of modulating ship activity” (H. Lee Moffitt Cancer Center and Reserach Institute, Inc., priority 2008, dated 2015).

Assays:
NK1.1+CD3- NK cells = assay: NK cell compartment in spleens of treated mice; type: in vivo, mouse; settings: mice treated daily for 6 days, spleen on day 7
Procedure: Mice were treated daily for 6 days with either NSC13480, vehicle alone (Vehicle) or were non-manipulated (Normal). On the 7th day the spleens of the mice were analyzed for NK cell content (NK1.1+CD3− cells) and for expression of the MHC-I inhibitory receptor Ly49G2.
SHIP-deficiency expands the peripheral NK compartment and disrupts the repertoire of receptors elaborated by NK cells that recognize MHC-I ligands. The NK cell compartment was examined in NSC13480-treated mice to determine if inhibition of SHIP enzymatic activity in vivo could also lead to similar disruptions in the NK cell compartment. […] Ly49G2 is an MHC-I inhibitory receptor shown to be under-represented in SHIP^−/− mice.
Antibody staining and flow cytometry (Examples 1-6): Anti-CD16/32 was co-incubated with the samples to block Fc receptor binding. Antibodies used for staining included: NK1.1 (PK136); CD3e (145-2C11); Ly49G2 (4D11); Gr-1 (RB6-8C5); Mac-1(M1/70); CD11c (HL3); CD4 (GK1.5); CD25 (PC61) and were obtained from BD Pharmingen (San Jose, Calif.). FoxP3 (FJK-16s) was purchased from eBioScience (San Diego, Calif.). All samples were acquired on a FACSCalibur and analyzed using FlowJo8.7.1. For viable staining, dead cells were excluded from the analysis following cytometer acquisition of data by exclusion of the 7AAD dye. […]

MG63 cells = assay: MTT cell viability assay, MG63; type: cell-based; settings: MG63, lacks SHIP1 expression, 36 hours
Procedure: (A) SHIP1 expression in KG1 and MG63 cells was determined by Western blotting (top). Membranes were reprobed with antibodies against b-actin to confirm equal loading (lower panel). One representative blot of 2 individual experiments is shown. (B) KG1 and MG63 cells were plated in duplicate in 96 well plates, and treated for 36 hours with increasing concentrations of the 3α-aminocholestane. Cell viability was assessed by MTT assay. Results represent the mean of three individual experiments. (C) KG1 cells were treated with increasing concentrations of 3α-aminocholestane for 36 hours and hallmarks of apoptosis were identified in cell lysates by Western Blot analysis. […] (D) KG1 cells were treated with increasing concentrations of 3α-aminocholestane, and the percentage of AnnexinV and PI positive cells was determined by FACS analysis. […]
Cell viability assay: Cells were treated in duplicate for 36 hours with increasing concentrations of 3α-aminocholestane or vehicle. […] Formed crystals were dissolved in dimethyl sulfoxide and optical density (OD) was measured at 570 nm. The OD of compound treated cells was divided by the OD of their vehicle control, and the viability was expressed as a percentage of untreated cells. Results are expressed as mean±SEM of three individual experiments.

KG1 cells = assay: Apoptosis of KG1 cells (Western blot, Annexin V/PI FACS); type: cell-based, human
Procedure: (A) SHIP1 expression in KG1 and MG63 cells was determined by Western blotting (top). Membranes were reprobed with antibodies against b-actin to confirm equal loading (lower panel). One representative blot of 2 individual experiments is shown. (B) KG1 and MG63 cells were plated in duplicate in 96 well plates, and treated for 36 hours with increasing concentrations of the 3α-aminocholestane. Cell viability was assessed by MTT assay. Results represent the mean of three individual experiments. (C) KG1 cells were treated with increasing concentrations of 3α-aminocholestane for 36 hours and hallmarks of apoptosis were identified in cell lysates by Western Blot analysis. Membranes were probed with antibodies against PARP and cleaved PARP (cPARP, upper panel) and cleaved Caspase 3 (cCaspase 3, middle panel). Equal protein loading was confirmed by reprobing the blots with anti-b-actin antibodies (lower panel). A representative example of 2 independent experiments is shown. (D) KG1 cells were treated with increasing concentrations of 3α-aminocholestane, and the percentage of AnnexinV and PI positive cells was determined by FACS analysis. A representative example of 2 individual experiments is shown.
It was a concern that SHIP1 inhibitors might potentially enhance the survival and growth of blood cell cancers. Conversely, as discussed above, SHIP1 inhibition could also […] Akt activation and therefore might also antagonize the survival of malignant blood cells. The two possibilities were tested by treating the AML cell line (KG-1) that expresses SHIP1 (FIG. 17a) with 3α-aminocholestane. […]
Preparation of cell lysates and Western blotting: Cells were counted, centrifuged and resuspended in Laemmli sample buffer. […]
Annexin V staining Annexin V/Propidium Iodide (PI) staining was performed using the Annexin V-FITC apoptosis detection kit from BD Pharmingen (Sharon, Mass.) per the manufacturer's instructions. […] Fluorescence was determined by flow cytometry (LSR II, Becton Dickinson Medical Systems, Sharon, Mass.).

[1] = test system: human multiple myeloma cell lines U266, RPMI8226 and OPM2; assay: MTT dye assay of multiple myeloma cell lines; type: cell-based; settings: increasing concentrations
Excerpt: (A) SHIP1 expression in human multiple myeloma (MM) cell lines as presented in the western blot analysis. SHIP is expressed in the human multiple myeloma cell lines U266, RPMI8226 and OPM2. The expression in the MM cell lines is shown relative to that observed in MG63 and HS-5 cell lines. MG63 is an osteosarcoma cell line, and HS-5 is a human bone marrow stroma cell line. […] Actin is provided as a control. (B) Results of MTT dye assays of MM cell lines. […] RUO is “relative units optical”. (C) Apoptosis in OPM and RPMI cell lines at increasing concentrations of 3α-aminocholestane.

SMILES | frequency of Ly49G2+ NK cells (NK1.1+CD3- NK cells) | splenic NK cell numbers (NK1.1+CD3- NK cells) | growth and survival of cells (MTT viability) (MG63 cells) | frequency of AnnexinV+ cells (KG1 cells; KG1, 36 hours, FACS) | cleavage of PARP and Caspase 3 (KG1 cells; KG1, 36 hours, Western blot) | activation of Akt/PKB (KG1 cells; KG1, Western blot) | viability of multiple myeloma cell lines [1]
OC(c1cc(-c2ccccc2)nc2c1ccc1ccccc12)C1CCCCN1 (stereo not shown) [NSC13480, (2-phenylbenzo[h]quinolin-4-yl)-piperidin-2-ylmethanol] | much reduced frequency | significant increase |  |  |  |  | 
CC(C)CCC[C@@H](C)[C@H]1CC[C@H]2[C@@H]3CC[C@H]4C[C@H](N)CC[C@]4(C)[C@H]3CC[C@]12C [NSC23922, (3R,5S,8R,9S,10S,13R,14S,17R)-10,13-dimethyl-17-[(2R)-6-methylheptan-2-yl]-2,3,4,5,6,7,8,9,11,12,14,15,16,17-tetradecahydro-1H-cyclopenta[a]phenanthren-3-amine] |  |  | not in cells that lacks SHIP1 expression | increased frequency | increased cleavage | decreased activation | decrease in viability
